This test concerns the target T1, KMO mouse enzyme (Mus musculus, UniProt Q91WN4).
T1 construct: KMO enzyme prepared at Evotec from mouse liver (4-6 weeks old) via mitochondria isolation; from tissue; host or cells: mouse liver (4-6 weeks old), isolated mitochondria
Put plainly: KMO mouse enzyme assay: L-Kynurenine hydroxylation to 3OH-KYN by LC/MS. It is filed as biochemical. The note with it: compound at 10 μM; KMO from mouse liver mitochondria; read-out: INH.Mouse @ 10 μM. As to the method:
A method of monitoring L-Kynurenine (KYN) hydroxylation to form 3-Hydroxy-Kynurenine (3OH-KYN) by LC/MS is described. Product is quantified by multiple reaction monitoring (MRM method).
• Compound: Stock concentrations: 10 mM in 100% DMSO • Enzyme: KMO enzyme prepared at Evotec from mouse liver (4-6 weeks old) via mitochondria isolation as described in the literature • Substrate: L-Kynurenine (Sigma: Cat# K3750, stock concentration: 10 mM in 100 mM potassium phosphate buffer, pH 7.4)
• Buffer: 100 mM potassium phosphate, pH 7.4, 200 μM NADPH, 0.4 U/ml G6P-DH (Glucose 6-phosphate Dehydrogenase), 3 mM G6P (D-Glucose 6-phosphate) • Assay Volume: 40 μl • Plate Format: 384 well plate, transparent (Matrix) • Read-Out: product (3OH-KYN) quantification using product specific MRM • Reader: LC/MS/MS
• prepare serial dilution (factor 3) of compound in 100% DMSO (top concentration=10 mM, 100% DMSO) • [8 points: 10 mM; 3.33 mM; 1.11 mM; 0.37 mM; 0.12 mM; 0.04 mM; 0.0137 mM; 0.0045 mM, 0.0015 mM] • prepare […] solution of each compound concentration (top concentration 300 μM, 3% DMSO) in assay buffer • [concentrations: 300 μM; 100 μM; 33.3 μM; 11.1 μM; 3.70 μM; 1.23 μM; 0.41 μM; 0.137 μM] • prepare substrate (10 mM) at concentration of 1 mM in assay buffer • assay mix: 4 μl compound/well of each concentration+24 μl assaybuffer/well+8 μl KMO mouse enzyme+4 μl 1 mM substrate (final concentration=100 μM) • [final compound top concentration: 30 μM; 0.3% DMSO] • [final compound bottom concentration: 0.0137 μM; 0.3% DMSO] • positive control: 4 μl 50 μM FCE28833 in assay buffer, 0.5% DMSO [final assay concentration=5 μM]+24 μl assaybuffer/well+8 μl KMO mouse enzyme+4 μl 1 mM substrate [final concentration=100 μM] • negative control: 28 μl assay buffer/well+8 μl KMO mouse enzyme+4 μl 1 mM substrate [final concentration=100 μM] • incubate 40 min at RT • add 40 μl/well 10% trichloro acetic acid in water to stop the assay and precipitate protein • centrifuge plate for 3 min at 4000 rpm • product detection by LC/MS (injection of 20 μl/well, 2 fold overfill of the 10 μl sample loop) Data analysis: IC50's are calculated using automated fitting algorithm (A+Analysis).
Using procedures similar to those described herein, the following compounds were assayed for activity.
T1 sequence (Q91WN4 whole entry): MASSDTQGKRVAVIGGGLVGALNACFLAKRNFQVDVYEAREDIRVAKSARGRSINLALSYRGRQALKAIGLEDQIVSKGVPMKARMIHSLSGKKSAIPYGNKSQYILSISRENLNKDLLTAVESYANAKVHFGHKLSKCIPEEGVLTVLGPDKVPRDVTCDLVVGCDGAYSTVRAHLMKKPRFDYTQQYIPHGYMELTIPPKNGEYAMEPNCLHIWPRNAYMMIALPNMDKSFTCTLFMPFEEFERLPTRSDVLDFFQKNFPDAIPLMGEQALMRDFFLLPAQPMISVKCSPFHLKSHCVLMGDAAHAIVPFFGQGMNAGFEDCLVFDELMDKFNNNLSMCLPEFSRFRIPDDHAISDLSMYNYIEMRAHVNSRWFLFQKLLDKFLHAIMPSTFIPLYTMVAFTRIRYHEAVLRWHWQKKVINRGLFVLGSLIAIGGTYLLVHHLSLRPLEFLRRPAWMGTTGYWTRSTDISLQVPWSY
On to `CON=C(CCC(=O)Nc1ccncc1)c1ccc(Cl)c(Cl)c1` [4-(3,4-Dichloro-phenyl)-4-methoxyimino-N-pyridin-4-yl-butyramide], for which the inhibition at 10 µM was 76.5%.

With `CON=C(CCC(=O)Nc1cncc(F)c1)c1ccc(Cl)c(Cl)c1` [4-(3,4-Dichloro-phenyl)-N-(5-fluoro-pyridin-3-yl)-4-methoxyimino-butyramide], the inhibition at 10 µM was 90.3%. In the case of `CON=C(CCC(=O)Nc1cnc(C)nc1)c1ccc(Cl)c(Cl)c1` [4-(3,4-Dichloro-phenyl)-4-methoxyimino-N-(2-methyl-pyrimidin-5-yl)-butyramide] it was 90.4%; in that of `CO/N=C(\CCC(=O)N1CCOCC1)c1ccc(Cl)c(Cl)c1` [1-(3,4-Dichloro-phenyl)-4-morpholin-4-yl-butane-1,4-dione 1-(O-methyl-oxime)], 63.4%; in that of `CO/N=C(\CCC(=O)N(C)C)c1ccc(Cl)c(Cl)c1` [4-(3,4-Dichloro-phenyl)-4-methoxyimino-N,N-dimethyl-butyramide], 64.3%. To `CON=C(CCC(=O)NCC(C)O)c1ccc(Cl)c(Cl)c1` (centres unmarked) [4-(3,4-Dichloro-phenyl)-N-(2-hydroxy-propyl)-4-methoxyimino-butyramide] belongs 98.8%. To `CON=C(CCC(=O)Nc1ccc(C)nc1)c1ccc(Cl)c(Cl)c1` [4-(3,4-Dichloro-phenyl)-4-methoxyimino-N-(6-methyl-pyridin-3-yl)-butyramide] belongs 82.9%; to `CO/N=C(\CCC(=O)O)c1ccc(Cl)c(Cl)c1` [4-(3,4-Dichloro-phenyl)-4-methoxyimino-butyric acid], 106%; to `CON=C(CCc1nc2cnccc2[nH]1)c1ccc(Cl)c(Cl)c1` [1-(3,4-Dichloro-phenyl)-3-(1H-imidazo[4,5-c]pyridin-2-yl)-propan-1-one O-methyl-oxime], 64.3%.

`CON=C(CCC(=O)Nc1cncc(C)c1)c1ccc(Cl)c(Cl)c1` [4-(3,4-Dichloro-phenyl)-4-methoxyimino-N-(5-methyl-pyridin-3-yl)-butyramide]: the inhibition at 10 µM stood at 102%.

For `CON=C(CCC(=O)O)c1cccc(Cl)c1` [4-(3-Chloro-phenyl)-4-methoxyimino-butyric acid], the inhibition at 10 µM was found to be 101%. To `COC(=O)CCC(=NOCCNC(=O)OC(C)(C)C)c1ccc(Cl)c(Cl)c1` [4-[2-tert-Butoxycarbonylamino-ethoxyimino]-4-(3,4-dichloro-phenyl)-butyric acid methyl ester] belongs 56.4%.

Regarding `CON=C(CCCC(=O)O)c1ccc(Cl)c(Cl)c1` [5-(3,4-Dichloro-phenyl)-5-methoxyimino-pentanoic acid], the inhibition at 10 µM came to 78.3%. Turning to `CON=C(CCC(=O)Nc1ncc(C)nc1C)c1ccc(Cl)c(Cl)c1` [4-(3,4-Dichloro-phenyl)-N-(3,5-dimethyl-pyrazin-2-yl)-4-methoxyimino-butyramide], the inhibition at 10 µM worked out at 101%.

Turning to `CON=C(CCC(=O)Nc1c(C)ccnc1C)c1ccc(Cl)c(Cl)c1` [4-(3,4-Dichloro-phenyl)-N-(2,4-dimethyl-pyridin-3-yl)-4-methoxyimino-butyramide], the inhibition at 10 µM was 85%. Turning to `CON=C(CCC(=O)NC1CCNC1)c1ccc(Cl)c(Cl)c1` (centres unmarked) [4-(3,4-Dichloro-phenyl)-4-methoxyimino-N-pyrrolidin-3-yl-butyramide], the inhibition at 10 µM worked out at 74.3%.

As to `CON=C(CCC(=O)Nc1cccnn1)c1ccc(Cl)c(Cl)c1` [4-(3,4-Dichloro-phenyl)-4-methoxyimino-N-pyridazin-3-yl-butyramide], the inhibition at 10 µM was 101%.

With `CON=C(CCC(=O)Nc1cncnc1)c1ccc(Cl)c(Cl)c1` [4-(3,4-Dichloro-phenyl)-4-methoxyimino-N-pyrimidin-5-yl-butyramide], the inhibition at 10 µM came out at 98.5%.

For `CO/N=C(\CCc1nn[nH]n1)c1ccc(Cl)c(Cl)c1` [1-(3,4-Dichloro-phenyl)-3-(2H-tetrazol-5-yl)-propan-1-one O-methyl-oxime], the inhibition at 10 µM was 96.4%. In the case of `CON=C(CCC(=O)N1CCCCC1)c1ccc(Cl)c(Cl)c1` [1-(3,4-Dichloro-phenyl)-4-piperidin-1-yl-butane-1,4-dione 1-(O-methyl-oxime)] it was 60.4%; in that of `CO/N=C(\CCC(=O)OC(C)C)c1ccc(Cl)c(Cl)c1` [4-(3,4-Dichloro-phenyl)-4-methoxyimino-butyric acid isopropyl ester], 102%; in that of `CON=C(CCC(=O)NCC(O)CO)c1ccc(Cl)c(Cl)c1` (centres unmarked) [4-(3,4-Dichloro-phenyl)-N-(2,3-dihydroxy-propyl)-4-methoxyimino-butyramide], 75.7%. In the case of `CON=C(CCC(=O)Nc1c(C)cc(C)nc1C)c1ccc(Cl)c(Cl)c1` [4-(3,4-Dichloro-phenyl)-4-methoxyimino-N-(2,4,6-trimethyl-pyridin-3-yl)-butyramide] it was 66.3%; in that of `CCNC(=O)CC/C(=N\OC)c1ccc(Cl)c(Cl)c1` [4-(3,4-Dichloro-phenyl)-N-ethyl-4-methoxyimino-butyramide], 98.9%. With `CCO/N=C(\CCC(=O)O)c1ccc(Cl)c(Cl)c1` [4-(3,4-Dichloro-phenyl)-4-ethoxyimino-butyric acid], the inhibition at 10 µM is 107%.

`CO/N=C(\CCC(=O)OC1CCC1)c1ccc(Cl)c(Cl)c1` [4-(3,4-Dichloro-phenyl)-4-methoxyimino-butyric acid cyclobutyl ester]: the inhibition at 10 µM came to 102%. Consider `CON=C(CCC(=O)Nc1nncs1)c1ccc(Cl)c(Cl)c1` [4-(3,4-Dichloro-phenyl)-4-methoxyimino-N-[1,3,4]thiadiazol-2-yl-butyramide], for which the inhibition at 10 µM came to 95.2%. In the case of `CO/N=C(\CCC(=O)OC)c1ccc(Cl)c(Cl)c1` [4-(3,4-Dichloro-phenyl)-4-methoxyimino-butyric acid methyl ester], the inhibition at 10 µM was 106%. In the case of `CON=C(CCC(=O)Nc1ccc(C)nn1)c1ccc(Cl)c(Cl)c1` [4-(3,4-Dichloro-phenyl)-4-methoxyimino-N-(6-methyl-pyridazin-3-yl)-butyramide] it was 90.2%. As to `CON=C(CCC(=O)N(C)c1cccnc1)c1ccc(Cl)c(Cl)c1` [4-(3,4-Dichloro-phenyl)-4-methoxyimino-N-methyl-N-pyridin-3-yl-butyramide], the inhibition at 10 µM came to 62.5%.

As for `CON=C(CCC(=O)NCCO)c1ccc(Cl)c(Cl)c1` [4-(3,4-Dichloro-phenyl)-N-(2-hydroxy-ethyl)-4-methoxyimino-butyramide], the inhibition at 10 µM came to 95.7%. To `CO/N=C(\CCC(=O)Nc1ccon1)c1ccc(Cl)c(Cl)c1` [4-(3,4-Dichloro-phenyl)-N-isoxazol-3-yl-4-methoxyimino-butyramide] belongs 101%.

Values taken from patent US20110230428A1, “CERTAIN KYNURENINE-3-MONOOXYGENASE INHIBITORS, PHARMACEUTICAL COMPOSITIONS, AND METHODS OF USE THEREOF” (priority 2008, published 2011).
